Legend:
[1] = Cytotoxicity on THP1 monocytes and macrophages; type: cell-based; settings: human, 100 nM, basal and LPS-stimulated conditions, read-out: cell viability (cytotoxicity)
Source text: These findings collectively highlight the anti-inflammatory properties of the selected CB2R agonists. […] The cytokine modulation profiles observed (Figure ) support the hypothesis that these ligands promote a shift toward an anti-inflammatory immune response, reducing the detrimental effects of chronic inflammation. This makes them promising candidates for the development of new therapies addressing severe inflammatory conditions, such as systemic infections, sepsis, neuroinflammation, and certain types of cancer or scenarios where conventional anti-inflammatory treatments are insufficient. Moreover, the selective targeting of CB2R without activating CB1R ensures a favorable safety profile, minimizing the risk of psychoactive side effects, and positioning these ligands as promising candidates for neurodegenerative and oncological therapies. To ensure the safety and viability of our tested compounds, we evaluated their cytotoxic effects on monocytes and macrophages under the same conditions as those used for assessing anti-inflammatory activity (Figure ). Each compound was tested at a concentration of 100 nM.
Supplementary Figure S5. Cytotoxicity assessment of lead compounds (16i, 16j, 18e, 18f, 18o, and 18p) on THP1 monocytes and macrophages (n = 3). Cells were treated with each compound at 100 nM under both basal and LPS - stimulated conditions. The viability was compared to controls, including HU308 and SR144528. […]
cytotoxic effects, with cell viability remaining close to 100% across all conditions. Error bars represent standard deviation.
(1 picture or pasted object on this page, not shown here)

CB1R = CB1R (Homo sapiens, UniProt P21554); assay: CB1R radioligand binding competition ([3H]CP55,940); set-up: host or cells: CHO-CB1 C3 cell line; settings: for CB1R % at 1 μM: percentage displacement of specific [3H]CP 55,940 binding at 1 μM, n = 2
CB2R = CB2R (Homo sapiens, UniProt P34972); assay: CB2R cAMP determination after forskolin stimulation in transfected HEK-293T cells; type: cell-based; set-up: expressed in transfected cells; host or cells: HEK-293T, transient transfection (PEI); settings: for Emax: HEK-293T, normalized to maximal efficacious concentration of CP 55,940, read-out: CB2R Emax AMPc (converted); for EC50: transfected HEK-293T cells, forskolin-stimulated cAMP, read-out: CB2R EC50 AMPc
Method: Initially we tested their ability to modify CB2R-mediated cAMP accumulation, providing insights into their functional behavior as either agonists or antagonists (Table ). Moreover, the signaling profiles of selected ligands were investigated through their impact on β-arrestin recruitment and Mitogen-Activated Protein Kinase (MAPK) phosphorylation pathway, enabling a more comprehensive evaluation of their intracellular signaling profiles (Table ).
HEK-293T cells were grown in Dulbecco’s Modified Eagle’s Medium (DMEM) medium (Gibco, Paisley, Scotland, United Kingdom) supplemented with 2 mM L-glutamine, 100 U/mL penicillin/streptomycin, MEM Non-Essential Amino Acids Solution (1/100) and 5% (v/v) heat inactivated Fetal Bovine Serum (FBS) (Invitrogen, Paisley, Scotland, United Kingdom). Cells were maintained in a humid atmosphere of 5% CO2 at 37 °C. Cells were transiently transfected with the PEI (Polyethylenimine, Sigma, St. Louis, MO, United States) method as previously described and used for functional assays 48 h later.
Signaling experiments have been performed as previously described. Two hours before initiating the experiment, HEK-293T cell-culture medium was replaced by serum-starved DMEM medium. Then, cells were detached, resuspended in growing medium containing […] zardaverine (Tocris, Bristol, U.K.) and placed in 384-well microplates (2500 cells/well). Cells were pretreated (15 min) with cannabinoid compounds (1 nM to 100 μM) -or vehicle- before adding […] forskolin (Tocris, Bristol, U.K.) to induce cAMP accumulation. Readings were performed after 15 min incubation at 25 °C. Homogeneous Time Resolved Fluorescence (HTRF) energy transfer measures were performed using the Lance Ultra cAMP kit (PerkinElmer, Waltham, MA, United States). Fluorescence at 665 nm was analyzed in a PHERA star Flagship microplate reader equipped with an HTRF optical module (BMG Lab Technologies, Offenburg, Germany).

[2] = Drug transport (BBB permeability) in Caco-2 monolayer; type: in vitro ADME; settings: human; for efflux ratio at 120 min: Caco-2, bidirectional permeability ratio, read-out: P app (BA/AB); for Papp A→B at 120 min / Papp B→A at 120 min: Caco-2 monolayer, 1 × 10^–4 M
Method: (§1) To validate the early predictions from the CNS-MPO and BOILED-egg models (Figure ), we experimentally assessed the BBB permeability and P-gp interaction of the selected CB2R agonists. For these studies, two pairs of amide enantiomers (18p and 18o, 18e, and 18f) were selected, and the evaluations were conducted using established protocols previously published by our group. Key parameters measured included the permeability coefficients (P appBA and P appAB), the bidirectional permeability ratio (BA/AB), and the degree of interaction with P-gP, as detailed in Table .
Caco-2 cells were grown in Dulbecco’s high-glucose modified eagle medium, composed of 10% fetal bovine serum, 2 mM of glutamine, 100 U/mL of penicillin, and 0.1 mg/mL of streptomycin (all components purchased from Corning, Milan, Italy) in a humidified incubator at 37 °C with a 5% CO2 atmosphere. The experiment started with the preparation of the Caco-2 monolayer, which occurred by seeding the cells (20,000/well) in Millicell plates (Millipore, Milan, Italy). Its growth was followed for 21 days by changing the medium occasionally and measuring its transepithelial electrical resistance (TEER) daily using an epithelial voltohmmeter (Millicell-ERS) until a TEER value >240 ohms × cm^2 was reached. After 21 days, the plate was washed twice with Hank’s balanced salt solution (HBSS) (Invitrogen). After the second wash, the wells were filled with buffer, and the plate was kept at 37 °C for 30 min. After the incubation time, the HBSS buffer was replaced with the solutions of the compounds to be tested at a concentration of 1 × 10^–4 M. The plates were placed in an incubator at 37 °C for 120 min. The apparent permeability (P app), in units of nm s^–1, was calculated as previously reported. ,

P-glycoprotein (P-gp) = P-glycoprotein (P-gp) (Homo sapiens, UniProt P08183); assay: P-gp interaction, Calcein-AM experiment; type: cell-based; settings: for P-gp interaction % at 100 μM: inhibition at 100 μM; for EC50: Calcein-AM
Method: as §1
This experiment was carried out as described by Contino et al. with minor modifications. Each cell line (30,000 cells per well) was seeded into black CulturePlate 96/wells plate with 100 μL medium and allowed to become confluent overnight. 100 μL of test compounds were solubilized in culture medium and added to monolayers, with final concentrations ranging from 0.1 to 100 μM. 96/Wells plate was incubated at 37 °C for 30 min. Calcein-AM was added in 100 μL of Phosphate Buffered Saline (PBS) to yield a final concentration of 2.5 μM and plate was incubated for 30 min. Each well was washed 3 times with ice cold PBS. Saline buffer was added to each well and the plate was read with Victor3 (PerkinElmer) at excitation and emission wavelengths of 485 and 535 nm, respectively. In these experimental conditions Calcein cell accumulation in the absence and in the presence of tested compounds was evaluated and fluorescence basal level was estimated with untreated cells. In treated wells the increase of fluorescence with respect to basal level was measured. EC50 values were determined by fitting the fluorescence increase percentage versus log[dose].

Sequence of CB2R (P34972 whole entry): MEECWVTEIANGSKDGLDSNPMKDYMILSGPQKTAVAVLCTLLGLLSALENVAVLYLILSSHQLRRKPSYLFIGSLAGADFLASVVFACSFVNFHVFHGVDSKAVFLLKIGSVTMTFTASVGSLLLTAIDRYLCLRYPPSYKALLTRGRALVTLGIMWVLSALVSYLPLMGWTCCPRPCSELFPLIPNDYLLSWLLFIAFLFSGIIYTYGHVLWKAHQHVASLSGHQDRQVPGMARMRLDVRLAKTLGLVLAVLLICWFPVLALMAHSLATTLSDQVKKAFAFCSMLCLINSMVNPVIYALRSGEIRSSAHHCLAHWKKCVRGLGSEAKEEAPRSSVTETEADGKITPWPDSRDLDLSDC
Sequence of CB1R (P21554 whole entry): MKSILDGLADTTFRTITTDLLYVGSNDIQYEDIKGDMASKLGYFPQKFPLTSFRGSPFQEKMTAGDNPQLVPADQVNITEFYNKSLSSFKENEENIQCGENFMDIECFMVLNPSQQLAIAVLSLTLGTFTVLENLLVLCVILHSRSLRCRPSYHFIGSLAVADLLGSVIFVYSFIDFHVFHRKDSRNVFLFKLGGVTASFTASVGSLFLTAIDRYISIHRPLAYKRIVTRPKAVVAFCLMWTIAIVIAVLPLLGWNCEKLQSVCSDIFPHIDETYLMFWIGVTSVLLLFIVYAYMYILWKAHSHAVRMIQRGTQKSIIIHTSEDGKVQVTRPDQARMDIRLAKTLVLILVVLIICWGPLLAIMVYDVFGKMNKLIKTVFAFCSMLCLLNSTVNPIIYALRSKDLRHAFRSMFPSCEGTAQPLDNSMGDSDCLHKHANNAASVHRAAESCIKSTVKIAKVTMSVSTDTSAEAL
Sequence of P-glycoprotein (P-gp) (P08183 whole entry): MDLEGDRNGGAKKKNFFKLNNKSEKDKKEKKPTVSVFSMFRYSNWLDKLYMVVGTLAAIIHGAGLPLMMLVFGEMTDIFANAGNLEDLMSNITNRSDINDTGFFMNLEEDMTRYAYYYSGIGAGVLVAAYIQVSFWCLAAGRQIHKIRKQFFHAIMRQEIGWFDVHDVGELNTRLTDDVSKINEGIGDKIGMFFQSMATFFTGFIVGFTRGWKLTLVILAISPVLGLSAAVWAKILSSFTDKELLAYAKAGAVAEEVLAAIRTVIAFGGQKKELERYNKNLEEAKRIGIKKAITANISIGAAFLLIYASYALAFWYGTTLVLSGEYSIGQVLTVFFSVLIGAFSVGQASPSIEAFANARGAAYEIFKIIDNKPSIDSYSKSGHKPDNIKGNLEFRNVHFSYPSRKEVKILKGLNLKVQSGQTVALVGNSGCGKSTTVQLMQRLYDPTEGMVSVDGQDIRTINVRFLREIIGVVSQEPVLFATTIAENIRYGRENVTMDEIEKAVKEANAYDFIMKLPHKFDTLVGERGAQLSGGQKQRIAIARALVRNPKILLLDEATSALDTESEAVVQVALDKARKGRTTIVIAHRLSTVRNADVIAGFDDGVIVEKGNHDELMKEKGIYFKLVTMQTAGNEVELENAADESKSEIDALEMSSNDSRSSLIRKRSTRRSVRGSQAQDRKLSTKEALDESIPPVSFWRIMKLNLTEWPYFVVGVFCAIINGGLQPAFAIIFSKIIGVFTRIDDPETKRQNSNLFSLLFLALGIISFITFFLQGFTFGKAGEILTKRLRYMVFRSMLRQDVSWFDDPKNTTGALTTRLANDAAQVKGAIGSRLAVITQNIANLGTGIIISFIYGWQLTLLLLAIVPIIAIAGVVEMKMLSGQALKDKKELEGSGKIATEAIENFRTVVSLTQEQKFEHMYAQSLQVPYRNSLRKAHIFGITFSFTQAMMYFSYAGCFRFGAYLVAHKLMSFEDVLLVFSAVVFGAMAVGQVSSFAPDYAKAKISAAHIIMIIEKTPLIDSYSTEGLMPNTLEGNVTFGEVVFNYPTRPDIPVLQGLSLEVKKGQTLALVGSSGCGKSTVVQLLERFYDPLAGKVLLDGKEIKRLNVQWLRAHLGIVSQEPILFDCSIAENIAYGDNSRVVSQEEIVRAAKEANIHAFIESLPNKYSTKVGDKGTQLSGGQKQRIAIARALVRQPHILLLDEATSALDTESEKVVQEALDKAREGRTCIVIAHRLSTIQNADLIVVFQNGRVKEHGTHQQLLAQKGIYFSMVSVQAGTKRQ

Row | Structure (SMILES) | viability at 0.1 µM [1] [%] | Ki (CB1R; displacement of [3H]CP 55,940, membranes of CHO-CB1 C3 cells, n = 3) [nM] | Emax (CB2R) [%] | EC50 (CB2R) [nM] | CB1R % at 1 μM (CB1R) [%] | efflux ratio at 120 min [2] | Papp A→B at 120 min [2] [×10⁻⁶ cm/s] | Papp B→A at 120 min [2] [×10⁻⁶ cm/s] | P-gp interaction % at 100 μM (P-glycoprotein (P-gp)) [%] | inhibition at 30 min, 1 μM (P-glycoprotein (P-gp); probe Calcein-AM (2.5 μM), at 1 μM as printed in text) [%] | EC50 (P-glycoprotein (P-gp)) [nM]
1 | CCCCCn1nc(C(=O)N2CCCC[C@H]2C(=O)OC)c2ccccc21 [16i] | ~100 | 685 ± 21 | 64 | 0.03 ± 0.01 | – | – | – | – | – | – | –
2 | CCCCCn1nc(C(=O)N2CCCC[C@@H]2C(=O)OC)c2ccccc21 [16j] | ~100 | – | 53 | 0.09 ± 0.01 | 3 | – | – | – | – | – | –
3 | NC(=O)[C@@H]1CCCCN1C(=O)c1cn(CC2CCCCC2)c2ccccc12 [18e] | ~100 | – | 82 | 1701 ± 12 | 19 | 0.51 | 99.5 | 50.6 | 30 | 30 | –
4 | NC(=O)[C@H]1CCCCN1C(=O)c1cn(CC2CCCCC2)c2ccccc12 [18f] | ~100 | – | 55 | 118 ± 4 | 11 | 0.49 | 79.2 | 39.3 | – | – | 61800
5 | NC(=O)[C@@H]1CCCCN1C(=O)c1nn(Cc2ccc(F)cc2)c2ccccc12 [18o] | ~100 | – | 60 | 0.6 ± 0.09 | – | 0.39 | 72.7 | 29 | 49 | – | –
6 | NC(=O)[C@H]1CCCCN1C(=O)c1nn(Cc2ccc(F)cc2)c2ccccc12 [18p] | ~100 | – | 58 | 6.8 ± 0.3 | 2 | 0.35 | 63.2 | 21.9 | – | – | 56900
